# Experiments:
# [1] = tested on: ulcer complication like bleeding from the stomach or the duodenum; settings: cited from earlier work
# [2] = tested on: gastric and/or duodenal ulcers in Helicobacter pylori-negative patients ≧60 years receiving ASA; assay: randomized, multicenter, placebo-controlled trial of esomeprazole 20 mg once daily for 26 weeks in patients receiving ASA; assay type: in vivo, human
# Method: Patients were randomized to receive either esomeprazole 20 mg (administered as esomeprazole magnesium, i.e. Nexium® owned by AstraZeneca AB) or placebo once daily for 26 weeks. The primary outcome variable was the presence of gastric and/or duodenal ulcers at endoscopy over the 26-week period. A total of 991 patients, all receiving ASA in doses varying between 75-325 mg/day (57.1% male, mean age 69.3 years, mean acetyl salicylic acid (ASA) dose 124.0 mg/day) were included in the intent-to-treat population. The cumulative proportion of patients without either gastric or duodenal ulcer at 26 weeks was 98.2% with esomeprazole, compared with 93.8% with placebo (life table estimates, p=0.0007). The incidence of gastric ulcers was lower in patients taking esomeprazole than in those taking placebo (1.2% vs. 3.8%), as was the incidence of duodenal ulcers (0.4% and 1.6% for esomeprazole and placebo, respectively). Eight patients (1.6%) had developed an ulcer, in the esomeprazole group by 6 months, compared with 27 patients (5.4%) in the placebo group. This corresponded to a relative reduction of developing an ulcer of 70% when taking esomeprazole rather than placebo. A total of 95.6% of patients treated with esomeprazole had no esophageal lesions at week 26, compared with 81.7% of patients treated with placebo (p<0.0001).
# [3] = tested on: damages on the mucosa caused by ASA; settings: concomitant administration for patients treated with ASA; cited from earlier work
# [4] = esomeprazole 20 mg once daily, 26 weeks, patients on ASA
smiles,measurement,setting,value
"CC(=O)Oc1ccccc1C(=O)O [ASA, acetyl salicylic acid]",relative risk of developing an ulcer complication like bleeding from the stomach or the duodenum,[1]; daily dose as low as 75 mg (Weil et al),doubles
same,hospital admissions due to adverse drug reactions caused by ASA,[1]; epidemiological data from the UK (Pirmohamed et al),18%
COc1ccc2nc([S@@+]([O-])Cc3ncc(C)c(OC)c3C)[nH]c2c1 [esomeprazole],resolution of investigator-assessed upper gastrointestinal symptoms,"[2]; all symptoms, versus placebo",higher with esomeprazole than with placebo
same,relative reduction of developing an ulcer when taking esomeprazole rather than placebo,"[2]; by 6 months, versus placebo",70%
same,safety and tolerability,[2]; esomeprazole 20 mg once daily for 26 weeks,safe and well tolerated
same,incidence of duodenal ulcers,[2]; [4],0.4%
same,incidence of gastric ulcers,[2]; [4],1.2%
same,patients who had developed an ulcer by 6 months,"[2]; esomeprazole 20 mg once daily, patients on ASA, eight patients",1.6%
same,proportion of patients without esophageal lesions at 6 months,"[2]; patients with no lesions and those with Los Angeles grade A lesions at baseline, versus placebo",higher with esomeprazole than with placebo
Cc1c(OCC(F)(F)F)ccnc1C[S+]([O-])c1nc2ccccc2[nH]1 (stereo not shown) [lansoprazole],effect on damages on the mucosa caused by ASA,[3],reduce damages on the mucosa caused by ASA

# From patent US20100178334A1, “Oral Pharmaceutical Dosage Form Comprising as Active Ingredients a Proton Pump Inhibitor together with Acetyl Salicyclic Acid” (priority 2005, published 2010)
